The structures appear in SMILES notation. Where “and” joins values, the source holds several entries; their conditions need not be identical. Identical values can stand only once.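 Five compound concentrations were applied to cells in 96-well plates for 48 hours; endpoints were derived by simple linear interpolation of the resulting dose-response curve. Abbreviation: GI50, concentration required for 50% inhibition of growth. TGI is the concentration that stops growth completely.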

Our source for the TGI and GI50 values is PubChem BioAssay (NCI).

Some test systems named below: LOX IMVI melanoma; HL-60(TB) leukemia; SNB-75 CNS; COLO 205 colon; NCI-H522 lung; SF-295 CNS; MOLT-4 leukemia; HS 578T breast; A498 renal; TK-10 renal.
Common to all, as to experiment: inhibition of tumour cell growth, NCI panel, 48 h

Regarding `O=C1C=CC(=O)c2c1ccc1c3ccccc3n(-c3cccc([N+](=O)[O-])c3)c21`, the TGI in the experiment with LOX IMVI melanoma is more than 10 µM; in the experiment with HL-60(TB) leukemia, 1.29 µM; with SNB-75 CNS, more than 10 µM; in the experiment on COLO 205 colon, 3.21 µM; in the experiment with NCI-H522 lung, 3.57 µM; with SF-295 CNS, more than 10 µM. Also, the TGI in the experiment with MOLT-4 leukemia was 1.07 µM; in the experiment with HS 578T breast, more than 10 µM; in the experiment with A498 renal it was more than 10 µM; in the experiment on TK-10 renal, 4.47 µM.

Turning to `COc1cc(OC)c(/C=C/c2c3ccccc3cc[n+]2C)c(OC)c1`, the GI50 with LOX IMVI melanoma was 2.01 µM; in the experiment on HL-60(TB) leukemia, 0.811 µM; in the experiment with SNB-75 CNS, 1.27 µM; in the experiment on COLO 205 colon it was 0.774 µM; in the experiment with NCI-H522 lung it was 1.52 µM; with SF-295 CNS, 2.17 µM. In addition, the GI50 in the experiment with MOLT-4 leukemia was 3.1 µM; in the experiment on HS 578T breast, 2.43 µM; with A498 renal, 1 µM; with TK-10 renal it was 3.27 µM. The TGI in the experiment with LOX IMVI melanoma was 5.9 µM; in the experiment with HL-60(TB) leukemia, 7.32 µM; in the experiment with SNB-75 CNS, 8.01 µM; in the experiment with COLO 205 colon it was 2.95 µM; in the experiment with NCI-H522 lung it was 6.49 µM; in the experiment on SF-295 CNS, more than 53.4 µM. Moreover, the TGI with MOLT-4 leukemia came to 32.8 µM; in the experiment with HS 578T breast it was 37.5 µM; in the experiment with A498 renal, 7.26 µM; in the experiment on TK-10 renal, 23.1 µM.

`COc1ncc(-c2ccc3ncnc(Nc4cccc(Cl)c4)c3c2)cc1NS(=O)(=O)C1CC1`: in the experiment on COLO 205 colon, the GI50 was more than 100 µM and the TGI is more than 100 µM. In addition, in the experiment with HS 578T breast, the GI50 is 0.365 µM and the TGI was more than 100 µM.

As to `Cn1cc(C2=C(c3cccc(Br)c3)C(=O)NC2=O)c2ccccc21`, the GI50 in the experiment on LOX IMVI melanoma is 12 µM; in the experiment on HL-60(TB) leukemia it was 10.2 µM; in the experiment on SNB-75 CNS, 1.18 µM; with COLO 205 colon it was 13.9 µM; in the experiment on NCI-H522 lung it was 10.4 µM; in the experiment with SF-295 CNS, 12.9 µM. Besides, the GI50 was 9.91 µM in the experiment with MOLT-4 leukemia, 3.92 µM in the experiment with HS 578T breast, 4.51 µM in the experiment with A498 renal and more than 18.6 µM in the experiment with TK-10 renal. Besides, the TGI in the experiment on LOX IMVI melanoma, in the experiment with HL-60(TB) leukemia, with SNB-75 CNS, in the experiment with COLO 205 colon, with NCI-H522 lung and in the experiment on SF-295 CNS was more than 25 µM in each case. Moreover, the TGI in the experiment on MOLT-4 leukemia was more than 25 µM; in the experiment on HS 578T breast it was more than 25 µM; in the experiment with A498 renal, 17.9 µM; in the experiment on TK-10 renal, more than 25 µM.

`C#COc1cccc(Nc2c(C#N)cnc3ncc(NC(=O)CCl)cc23)c1`: the GI50 in the experiment on LOX IMVI melanoma is 28.8 µM; in the experiment with HL-60(TB) leukemia, 41 µM; in the experiment on SNB-75 CNS it was 45.4 µM; in the experiment on COLO 205 colon, 40.1 µM; with NCI-H522 lung, 9.77 µM; in the experiment on SF-295 CNS, more than 62.5 µM. The GI50 in the experiment with MOLT-4 leukemia is 4.2 µM; in the experiment with HS 578T breast, more than 62.5 µM; with A498 renal, 45.8 µM; with TK-10 renal, more than 62.5 µM. The TGI is more than 62.5 µM in the experiment with LOX IMVI melanoma; more than 62.5 µM in the experiment with HL-60(TB) leukemia; more than 62.5 µM in the experiment on SNB-75 CNS; more than 62.5 µM in the experiment on COLO 205 colon; 21.4 µM with NCI-H522 lung; more than 62.5 µM in the experiment on SF-295 CNS. Further, the TGI in the experiment with MOLT-4 leukemia, in the experiment on HS 578T breast, in the experiment with A498 renal and with TK-10 renal was more than 62.5 µM throughout.

As for `CC1(C)CC(=O)C(C=NC(=O)c2ccncc2)=C(O)C1`, the TGI in the experiment with LOX IMVI melanoma, with HL-60(TB) leukemia, in the experiment on SNB-75 CNS, in the experiment with COLO 205 colon, in the experiment on NCI-H522 lung and with SF-295 CNS was more than 100 µM throughout. Besides, the TGI in the experiment on MOLT-4 leukemia, in the experiment with HS 578T breast and with TK-10 renal was more than 100 µM throughout.

As for `Cc1nc(-[n+]2nc(-c3ccncc3)nn2-c2ccccc2)sc1C`, the TGI with LOX IMVI melanoma is more than 100 µM; with HL-60(TB) leukemia, more than 100 µM; in the experiment with SNB-75 CNS, more than 100 µM; in the experiment on COLO 205 colon, more than 100 µM; in the experiment on NCI-H522 lung it was 76.5 µM; with SF-295 CNS, more than 100 µM. The TGI in the experiment with MOLT-4 leukemia is more than 100 µM; in the experiment on HS 578T breast, more than 100 µM; in the experiment with A498 renal it was more than 100 µM; in the experiment on TK-10 renal, 99.1 µM.

As for `Cc1nn(C(=O)c2ccc(Cl)cc2)c2c1C(/C=C/c1ccccc1)SC(N)=N2` (stereo unspecified), the TGI with LOX IMVI melanoma, in the experiment on HL-60(TB) leukemia, with SNB-75 CNS, with COLO 205 colon, in the experiment with NCI-H522 lung and in the experiment on SF-295 CNS was more than 10 µM throughout. The TGI in the experiment with MOLT-4 leukemia, in the experiment on HS 578T breast and in the experiment with TK-10 renal was more than 10 µM throughout.

Consider `COC(=O)[C@@H](C)C[C@H](Cc1ccccc1)NC(=O)c1csc([C@@H](C[C@H](C(C)C)N(C)C(=O)[C@@H](NC(=O)[C@H]2CCCCN2C)C2CCCCC2)OC(C)=O)n1`, for which the GI50 in the experiment with LOX IMVI melanoma is 0.00139 µM and 0.0025 µM; with HL-60(TB) leukemia, 0.000306 µM and < 0.0025 µM; with SNB-75 CNS, 0.00103 µM and 0.0025 µM; in the experiment with COLO 205 colon, 0.000301 µM and < 0.0025 µM; with SF-295 CNS, 0.000346 µM and 0.0025 µM; with MOLT-4 leukemia it was 0.00512 µM and 0.0025 µM. The GI50 in the experiment on HS 578T breast was 0.0026 µM; in the experiment with A498 renal, 0.000272 µM and 0.0025 µM; with TK-10 renal it was 0.0181 µM and 0.0025 µM. The TGI in the experiment with LOX IMVI melanoma is 23 µM; with HL-60(TB) leukemia, 0.00159 µM and < 0.0025 µM; with SNB-75 CNS, 22.2 µM; in the experiment on COLO 205 colon, 0.0026 µM and < 0.0025 µM; in the experiment with SF-295 CNS, more than 25 µM; in the experiment with MOLT-4 leukemia, 4.87 µM. The molecule also had a TGI with TK-10 renal of more than 25 µM.

Turning to `NCCSc1nc(-c2ccccc2)c(-c2ccccc2)o1`, the TGI with LOX IMVI melanoma is more than 100 µM; in the experiment on SNB-75 CNS, 61.4 µM; in the experiment on COLO 205 colon, more than 100 µM; in the experiment with NCI-H522 lung, more than 100 µM; in the experiment on SF-295 CNS, more than 100 µM; in the experiment with HS 578T breast, more than 100 µM. The TGI in the experiment with A498 renal and in the experiment on TK-10 renal was more than 100 µM each time.
